Read-outs that look alike come from different tables or passages of the source.
Experiments:
[1] = system: Key Broadleaf Weed and Crop Species; assay: Post-emergent Test II herbicidal activity (Table 5); assay type: in vivo; details: post-emergence, 336 h, post-emergent, 14 days after application; for pest or weed control at 140 g/ha: 140 g ai/ha; for pest or weed control at 70 g/ha: 70 g ai/ha
Procedure: (§1) Post-emergent Test II: Seeds or nutlets of the desired test plant species were planted in Sun Gro Metro-Mix® 360 planting mixture, which typically has a pH of 6.0 to 6.8 and an organic matter content of about 30 percent, in plastic pots with a surface area of 64 square centimeters. When required to ensure good germination and healthy plants, a fungicide treatment and/or other chemical or physical treatment was applied. The plants were grown for 7-21 d in a greenhouse with an approximate 15 h photoperiod which was maintained at about 23-29° C. during the day and 22-28° C. during the night. Nutrients and water were added on a regular basis and supplemental lighting was provided with overhead metal halide 1000-Watt lamps as necessary. The plants were employed for testing when they reached the first or second true leaf stage.
(§2) A weighed amount, determined by the highest rate to be tested, of each test compound was placed in a 25 mL glass vial and was dissolved in 4 mL of a 97:3 v/v mixture of acetone and DMSO to obtain concentrated stock solutions. […] The concentrated stock solutions obtained were diluted with 20 mL of an aqueous mixture containing acetone, water, isopropyl alcohol, DMSO. Atplus 411F crop oil concentrate, and Triton® X-155 surfactant in a 48.5:39:10:1.5:1.0:0.02 v/v ratio to obtain spray solutions containing the highest application rates. Additional application rates were obtained by serial dilution of 12 mL of the high rate solution into a solution containing 2 mL of 97:3 v/v mixture of acetone and DMSO and 10 mL of an aqueous mixture containing acetone, water, isopropyl alcohol, DMSO, Atplus 411F crop oil concentrate, and Triton X-155 surfactant in a 48.5:39:10:1.5:1.0:0.02 v/v ratio to obtain ½×, ¼×, ⅛× and 1/16× rates of the high rate. Compound requirements are based upon a 12 mL application volume at a rate of 187 liters per hectare (L/ha). Formulated compounds were applied to the plant material with an overhead Mandel track sprayer equipped with 8002E nozzles calibrated to deliver 187 L/ha over an application area of 0.503 square meters at a spray height of 18 inches (43 cm) above the average plant canopy height. Control plants were sprayed in the same manner with the solvent blank.
(§3) The treated plants and control plants were placed in a greenhouse as described above and watered by subirrigation to prevent wash-off of the test compounds. After 14 d, the condition of the test plants as compared with that of the untreated plants was determined visually and scored on a scale of 0 to 100 percent where 0 corresponds to no injury and 100 corresponds to complete kill.

[2] = system: Key Grass and Sedge Weeds as well as Grass Crops; assay: Post-emergent Test II herbicidal activity (Table 6); assay type: in vivo; details: post-emergence, 336 h; for pest or weed control at 140 g/ha: application rate 140 g ai/ha; for pest or weed control at 70 g/ha: application rate 70 g ai/ha
Procedure: as §1, §2, §3

[3] = ABUTH: velvetleaf (Abutilon theophrasti), read-out: Visual Growth Reduction (%) 14 Days After Application ABUTH
[4] = AMARE: redroot pigweed (Amaranthus retroflexus), read-out: Visual Growth Reduction (%) 14 Days After Application AMARE
[5] = BRSNN: oilseed-rape, canola (Brassica napus), read-out: Visual Growth Reduction (%) 14 Days After Application BRSNN
[6] = CHEAL: lambsquarters (Chenopodium album), read-out: Visual Growth Reduction (%) 14 Days After Application CHEAL
[7] = EPHHL: wild poinsettia (Euphorbia heterophylla), read-out: Visual Growth Reduction (%) 14 Days After Application EPHHL
[8] = HELAN: sunflower (Helianthus annuus), read-out: Visual Growth Reduction (%) 14 Days After Application HELAN
[9] = VIOTR: wild pansy (Viola tricolor), read-out: Visual Growth Reduction (%) 14 Days After Application VIOTR
[10] = Triticum aestivum, TRZSS (wheat), read-out: Visual Growth Reduction (%) 14 Days After Application, TRZSS
[11] = CYPES: yellow nutsedge (Cyperus esculentus), read-out: Visual Growth Reduction (%) 14 Days After Application, CYPES
[12] = DIGSA: crabgrass (Digitaria sanguinalis), read-out: Visual Growth Reduction (%) 14 Days After Application, DIGSA
[13] = ECHCG: barnyardgrass (Echinochloa crus-galli), read-out: Visual Growth Reduction (%) 14 Days After Application, ECHCG
[14] = ORYSA: rice (Oryza sativa), read-out: Visual Growth Reduction (%) 14 Days After Application, ORYSA
[15] = SETFA: giant foxtail (Setaria faberi), read-out: Visual Growth Reduction (%) 14 Days After Application, SETFA
[16] = SORVU: grain sorghum (Sorghum vulgare), read-out: Visual Growth Reduction (%) 14 Days After Application, SORVU
[17] = ZEAMX: maize, corn (Zea mays), read-out: Visual Growth Reduction (%) 14 Days After Application, ZEAMX
[18] = TRZSS (wheat, Triticum aestivum), read-out: Visual Growth Reduction (%) 14 Days After Application, TRZSS

| melting point [°C] | Structure (SMILES) | pest or weed control at 140 g/ha [1, 3] [%] | pest or weed control at 140 g/ha [1, 4] [%] | pest or weed control at 140 g/ha [1, 5] [%] | pest or weed control at 140 g/ha [1, 6] [%] | pest or weed control at 140 g/ha [1, 7] [%] | pest or weed control at 140 g/ha [1, 8] [%] | pest or weed control at 140 g/ha [1, 9] [%] | pest or weed control at 140 g/ha [2, 10] [%] | pest or weed control at 140 g/ha [2, 11] [%] | pest or weed control at 140 g/ha [2, 12] [%] | pest or weed control at 140 g/ha [2, 13] [%] | pest or weed control at 140 g/ha [2, 14] [%] | pest or weed control at 140 g/ha [2, 15] [%] | pest or weed control at 140 g/ha [2, 16] [%] | pest or weed control at 140 g/ha [2, 17] [%] | other results |
| --- | --- | --- | --- | --- | --- | --- | --- | --- | --- | --- | --- | --- | --- | --- | --- | --- | --- |
| 146.3 to 147.6 | Nc1c(Cl)c(C(=O)O)nc(-c2ccc(OC(F)F)cc2)c1Cl [Compound 33] | 60 to 74 | 0 to 29 | 30 to 44 | 0 to 29 | 0 to 29 | 95 to 100 | 0 to 29 | 0 to 29 | 0 to 29 | 0 to 29 | 0 to 29 | 0 to 29 | 0 to 29 | 0 to 29 | 0 to 29 |  |
| 141.9 to 143.1 | Nc1c(Cl)c(C(=O)O)nc(-c2ccc(OC(F)(F)F)cc2)c1Cl [Compound 105] | 0 to 29 | 0 to 29 | 0 to 29 | 0 to 29 | 0 to 29 | 95 to 100 | 0 to 29 | 0 to 29 | 0 to 29 | 0 to 29 | 0 to 29 | 0 to 29 | 0 to 29 | 0 to 29 | 0 to 29 |  |
| 185.2 to 186.1 | COc1c(N)nc(-c2ccc(C#N)cc2)nc1C(=O)O [Compound 25] | 0 to 29 | 0 to 29 | 0 to 29 | 0 to 29 | 0 to 29 | 0 to 29 | 0 to 29 | 0 to 29 | 0 to 29 | 0 to 29 | 0 to 29 | 0 to 29 | 0 to 29 | 0 to 29 | 0 to 29 |  |
| 171 to 172.1 | COc1c(N)nc(-c2ccc(OC(F)(F)F)cc2)nc1C(=O)O [Compound 102] | 0 to 29 | 0 to 29 | 0 to 29 | 0 to 29 | 95 to 100 | 60 to 74 | 0 to 29 | 0 to 29 | 0 to 29 | 0 to 29 | 0 to 29 | 0 to 29 | 0 to 29 | 0 to 29 | 0 to 29 |  |
| 130 to 132 | C#Cc1ccc(-c2nc(C(=O)OC)c(Cl)c(N)c2C)cc1F [Compound 151, methyl 4-amino-3-chloro-6-(4-ethynyl-3-fluorophenyl)-5-methylpicolinate] | 95 to 100 |  | 85 to 94 | 95 to 100 | 0 to 29 | 85 to 94 | 0 to 29 |  | 75 to 84 | 0 to 29 | 45 to 59 | 0 to 29 | 60 to 74 | 60 to 74 | 75 to 84 | pest or weed control at 70 g/ha [1, 3]: 95 to 100%; pest or weed control at 70 g/ha [1, 5]: 75 to 84%; pest or weed control at 70 g/ha [1, 6]: 95 to 100%; pest or weed control at 70 g/ha [1, 7]: 0 to 29%; pest or weed control at 70 g/ha [1, 8]: 85 to 94%; pest or weed control at 70 g/ha [1, 9]: 0 to 29%; pest or weed control at 70 g/ha [2, 11]: 0 to 29%; pest or weed control at 70 g/ha [2, 12]: 0 to 29%; pest or weed control at 70 g/ha [2, 13]: 0 to 29%; pest or weed control at 70 g/ha [2, 14]: 0 to 29%; pest or weed control at 70 g/ha [2, 15]: 0 to 29%; pest or weed control at 70 g/ha [2, 16]: 60 to 74%; pest or weed control at 70 g/ha [2, 18]: 0 to 29%; pest or weed control at 140 g/ha [2, 18]: 0 to 29%; pest or weed control at 70 g/ha [2, 17]: 60 to 74% |
